Measurements as given in ChEMBL document CHEMBL1201862, “PubChem BioAssay data set” (2004).
“And” between values parts separate entries of the source, which are not always exact repeats. Identical values can stand only once.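 48-hour exposure; five concentrations; linearly interpolated endpoints. GI50 = concentration required for 50% inhibition of growth.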 The source made the active and inactive calls. Cut-off read from the data, not from the text of the source: active = GI50 up to about 1.1 µM and inactive = higher.

Tests used:
Experiment in all cases: inhibition of tumour cell growth, NCI panel, 48 h
786-0 = test system: 786-0
A498 = test system: A498
HCT-116 = test system: HCT-116
HOP-92 = test system: HOP-92
K562 = test system: K562
LOX IMVI = test system: LOX IMVI
M14 = test system: M14
Malme-3M = test system: Malme-3M
NCI-H23 = test system: NCI-H23
NCI-H460 = test system: NCI-H460
NCI-H522 = test system: NCI-H522
RPMI-8226 = test system: RPMI-8226
SK-MEL-2 = test system: SK-MEL-2
SNB-19 = test system: SNB-19
SNB-75 = test system: SNB-75
UACC-257 = test system: UACC-257
MDA-MB-435 = test system: MDA-MB-435
NCI/ADR-RES = test system: NCI/ADR-RES
PC-3 = test system: PC-3

Measured: GI50

O=C1C(Cl)=C(Cl)C(=O)N1c1ccccc1Cl
inactive: 786-0 > 79.3 µM | A498 > 100 µM | HCT-116 > 100 µM | HOP-92 > 36.7 µM | K562 28.9 µM | LOX IMVI > 100 µM | M14 > 75.9 µM | Malme-3M > 52.5 µM | NCI-H23 > 85.9 µM | NCI-H460 > 100 µM | NCI-H522 8.24 µM | RPMI-8226 > 54.1 µM | SK-MEL-2 > 100 µM | SNB-19 > 100 µM | SNB-75 > 100 µM | UACC-257 > 100 µM

O=C1CCC2(c3ccccc3)Nc3cc(Cl)ccc3N12 (stereo not given)
inactive: 786-0 35.6 µM | A498 35.4 µM | HOP-92 13.7 µM | K562 32 µM | LOX IMVI 33 µM | M14 30.1 µM | Malme-3M 25.8 µM | NCI-H23 22.3 µM | NCI-H460 32.7 µM | NCI-H522 26.9 µM | RPMI-8226 22 µM | SK-MEL-2 22.2 µM | SNB-75 16 µM | UACC-257 24 µM

CN1CCOC(C(NC(=O)c2ccccc2)c2ccccc2)C1=O (stereo not given)
inactive: 786-0 > 100 µM | A498 > 100 µM | HCT-116 > 100 µM | HOP-92 > 100 µM | K562 > 100 µM | LOX IMVI > 100 µM | M14 > 100 µM | Malme-3M > 100 µM | NCI-H23 > 100 µM | NCI-H460 > 100 µM | NCI-H522 > 100 µM | RPMI-8226 > 100 µM | SK-MEL-2 > 100 µM | SNB-19 > 100 µM | SNB-75 24.3 µM | UACC-257 > 100 µM

O=C(NC1CCCCCC1)C1C(=O)N(C2CCCCCC2)C(=O)/C1=N\O (stereo not given)
inactive: 786-0 32.8 µM | A498 32.9 µM | HCT-116 17.3 µM | HOP-92 20.6 µM | K562 39.1 µM | LOX IMVI 35.6 µM | M14 32.1 µM | Malme-3M 24.4 µM | NCI-H23 26.5 µM | NCI-H460 35.7 µM | NCI-H522 19.6 µM | RPMI-8226 29.1 µM | SK-MEL-2 17.1 µM | SNB-19 35.2 µM | SNB-75 26.6 µM | UACC-257 38.8 µM

CCOC(=O)C1C(=O)CC(=O)C2CCCCC21 (stereo not given)
inactive: 786-0 > 100 µM | A498 > 100 µM | HCT-116 > 100 µM | HOP-92 > 100 µM | K562 > 100 µM | LOX IMVI > 100 µM | M14 > 100 µM | Malme-3M > 100 µM | NCI-H23 > 100 µM | NCI-H460 > 100 µM | NCI-H522 > 100 µM | RPMI-8226 > 100 µM | SK-MEL-2 > 100 µM | SNB-19 > 100 µM | SNB-75 > 100 µM | UACC-257 > 100 µM

COC(=O)c1c(C(=O)OC)c2ccccn2c1-c1cc(C)cc2c1C(=O)C=CC2=O
inactive: 786-0 5.48 µM | A498 12.8 µM | HCT-116 10.7 µM | K562 2.67 µM | LOX IMVI > 10 µM | M14 9.48 µM | MDA-MB-435 11.4 µM | Malme-3M 10.2 µM | NCI-H23 8.09 µM | NCI-H460 > 10 µM | NCI-H522 > 10 µM | NCI/ADR-RES 15.6 µM | PC-3 14 µM | RPMI-8226 4.11 µM | SK-MEL-2 12.5 µM | SNB-19 13.7 µM | SNB-75 16.4 µM | UACC-257 3.43 µM

CCCC(=O)c1ccc2c(ccc(=O)n2C)c1
inactive: 786-0 > 100 µM | A498 83 µM | HCT-116 > 100 µM | HOP-92 46.2 µM | K562 > 100 µM | LOX IMVI > 100 µM | M14 > 100 µM | Malme-3M > 100 µM | NCI-H23 > 100 µM | NCI-H460 > 100 µM | NCI-H522 31.9 µM | RPMI-8226 > 100 µM | SK-MEL-2 > 100 µM | SNB-19 > 100 µM | SNB-75 27.2 µM

O=[N+]([O-])c1cc(/C=N\NS(=O)(=O)c2ccc(Cl)cc2)c(O)c([N+](=O)[O-])c1
inactive: 786-0 36.1 µM | A498 35.7 µM | HCT-116 30.1 µM | HOP-92 36.3 µM | K562 31.1 µM | LOX IMVI 37.8 µM | M14 32.4 µM | Malme-3M 36.6 µM | NCI-H23 22.2 µM | NCI-H460 21 µM | NCI-H522 24.5 µM | RPMI-8226 19 µM | SK-MEL-2 31.1 µM | SNB-19 20.9 µM | SNB-75 24.9 µM | UACC-257 66.5 µM

COC(=O)N/N=c1\cc(C(=O)Nc2ccc(C)c(C)c2)oc2cc(O)ccc12
inactive: 786-0 > 100 µM | A498 > 100 µM | HCT-116 > 100 µM | HOP-92 > 100 µM | K562 > 100 µM | LOX IMVI > 100 µM | M14 > 100 µM | Malme-3M > 100 µM | NCI-H23 > 100 µM | NCI-H460 > 100 µM | NCI-H522 > 100 µM | SK-MEL-2 > 100 µM | SNB-19 > 100 µM | SNB-75 > 100 µM | UACC-257 > 100 µM

O=C(C[n+]1ccccc1)NNC(=O)/C(=C/c1ccc2c(c1)OCO2)NC(=O)c1ccccc1
inactive: 786-0 51.4 µM | A498 > 100 µM | HCT-116 68.9 µM | HOP-92 > 100 µM | K562 > 77.4 µM | LOX IMVI 20.6 µM | M14 48 µM | Malme-3M > 81.8 µM | NCI-H23 > 79.1 µM | NCI-H460 > 57.7 µM | NCI-H522 29 µM | RPMI-8226 24.5 µM | SK-MEL-2 > 100 µM | SNB-19 68.9 µM | SNB-75 36.7 µM | UACC-257 > 100 µM

COc1ccccc1/C=C(/C)[N+](=O)[O-]
inactive: 786-0 1.37 µM and 1.13 µM | A498 7.13 µM and 5.14 µM | HOP-92 2.21 µM | M14 1.37 µM and 1.21 µM | MDA-MB-435 3.15 µM and 1.93 µM | Malme-3M 2.51 µM and 1.85 µM | NCI-H23 2.15 µM and 2.2 µM | NCI-H522 1.39 µM and 1.19 µM | NCI/ADR-RES 3.44 µM and 2.65 µM | PC-3 2.79 µM and 2.53 µM | SK-MEL-2 1.99 µM and 2.53 µM | SNB-19 4.26 µM and 2.33 µM | UACC-257 1.74 µM and 1.77 µM

COc1cc2c(cc1OC)C1(c3ccc(Cl)cc3)ON=C(c3ccccc3)N1CS2 (stereo not given)
inactive: 786-0 > 100 µM | A498 83.2 µM | HCT-116 6.37 µM | HOP-92 44.8 µM | K562 75.3 µM | LOX IMVI 30.1 µM | M14 73.8 µM | Malme-3M > 100 µM | NCI-H23 > 100 µM | NCI-H460 92 µM | NCI-H522 58.9 µM | RPMI-8226 48.1 µM | SK-MEL-2 > 100 µM | SNB-19 > 100 µM | SNB-75 > 100 µM | UACC-257 > 100 µM

CS(=O)(=O)c1nc(-c2cc3c(c(S(C)(=O)=O)n2)CCC3)cc2c1CCCC2
inactive: 786-0 35.3 µM | HCT-116 > 100 µM | K562 > 100 µM | LOX IMVI 18.7 µM | M14 > 100 µM | MDA-MB-435 > 100 µM | NCI-H23 58.3 µM | NCI-H522 17 µM | NCI/ADR-RES 48.6 µM | PC-3 > 100 µM | RPMI-8226 > 100 µM | SK-MEL-2 24.6 µM | SNB-19 32.4 µM | SNB-75 8.63 µM | UACC-257 > 100 µM

N#CC1(C#N)C=CC(=C2OCC3CCCN23)C=C1 (stereo not given)
inactive: 786-0 > 100 µM | A498 > 100 µM | HCT-116 > 100 µM | HOP-92 96.2 µM | K562 > 100 µM | LOX IMVI > 100 µM | M14 > 100 µM | Malme-3M > 100 µM | NCI-H460 > 100 µM | NCI-H522 > 100 µM | RPMI-8226 > 100 µM | SK-MEL-2 > 100 µM | SNB-19 > 100 µM | SNB-75 52.2 µM | UACC-257 > 100 µM

CC12CC3CC(C)(C1)CC(N=[N+]=[N-])(C3)C2
inactive: 786-0 > 100 µM | A498 > 100 µM | HCT-116 > 100 µM | HOP-92 > 100 µM | K562 > 100 µM | LOX IMVI > 100 µM | M14 > 100 µM | Malme-3M > 100 µM | NCI-H23 > 100 µM | NCI-H460 > 100 µM | NCI-H522 > 100 µM | RPMI-8226 > 100 µM | SK-MEL-2 > 100 µM | SNB-19 > 100 µM | SNB-75 > 100 µM | UACC-257 > 100 µM

CN1C(c2ccccc2)CC(=NO)CC1c1ccccc1 (stereo not given)
inactive: 786-0 97.9 µM | A498 82 µM | HCT-116 19.3 µM | HOP-92 92.7 µM | K562 29.4 µM | LOX IMVI 19.7 µM | M14 43 µM | Malme-3M 34.8 µM | NCI-H23 89.1 µM | NCI-H460 60 µM | NCI-H522 25.6 µM | RPMI-8226 24 µM | SK-MEL-2 53.5 µM | SNB-19 > 100 µM | SNB-75 59.7 µM | UACC-257 55.1 µM

COc1cc(Cn2c3ccccc3c3cc(C)c4c(c32)C=CC(C)(CCC=C(C)C)O4)cc2c1[nH]c1ccccc12 (stereo not given) [CHRESTFOLINE C]
inactive: 786-0 > 100 µM | A498 > 100 µM | HCT-116 > 100 µM | HOP-92 > 100 µM | K562 > 100 µM | LOX IMVI > 100 µM | M14 > 100 µM | Malme-3M > 100 µM | NCI-H23 > 100 µM | NCI-H460 > 100 µM | NCI-H522 > 100 µM | RPMI-8226 > 100 µM | SK-MEL-2 > 100 µM | SNB-19 > 100 µM | SNB-75 > 100 µM | UACC-257 > 100 µM
